Among the data in PubChem BioAssay (NCI) are TGI values, retold here.

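Grown in 96-well plates, cells were treated for 48 hours with each compound at five concentrations. Insufficient inhibition: endpoint recorded as highest concentration tested. Definition used: TGI = concentration required for complete inhibition of growth.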

The first assay has as its system HT29 colon. Kind of assay: NCI-60 cell line screen, 48 h.
`COc1cc2[nH]c(-c3ccccc3)cc(=O)c2c(OC)c1OC` had a TGI of over 100 µM.

`CCOP(=O)(OCC)OC1CC(n2cc(C)c(=O)n(C)c2=O)OC1CO[Si](C)(C)C(C)(C)C` (configuration not stated) returned a TGI of over 100 µM.

Consider `Cc1cc(C)nc(NS(=O)(=O)c2ccc(NC(=O)c3cccc4c(NNc5ccc(S(=O)(=O)N=C(N)N)cc5)c5ccccc5nc34)cc2)n1`, for which the TGI was over 50 µM.

In the case of `O=C(CC(C(=O)c1ccco1)c1ccco1)c1ccco1` (configuration not stated), the TGI is over 100 µM.

The compound `O=C1CS(=O)(=O)C(c2cccc(Oc3ccccc3)c2)N1c1cc(Cl)ccc1Cl` (configuration not stated) showed a TGI of 47.8 µM.

For the compound `Nc1ccc(-c2nn3c(COc4ccc(Cl)cc4)nnc3s2)cc1`, the TGI is over 100 µM.

`COP(=O)(OC)C(Nc1ccc(Cc2ccc(NC(c3ccco3)P(=O)(OC)OC)cc2)cc1)c1ccco1` (configuration not stated) returned a TGI of over 100 µM.

With `O=C(CC(=O)Nc1ccccc1)NNC(c1cc(N=Nc2ccc(Br)cc2)ccc1O)P(O)O` (configuration not stated), the TGI was over 10 µM.

`CCOC(=O)C1CCC(=O)N1C(=O)c1ccccc1Cl` (configuration not stated) had a TGI of over 100 µM.

As for `CCOC(=O)c1ccc(Nc2nc3ccc(C(F)(F)F)cc3nc2C(=O)OCC)cc1`, the TGI is over 100 µM.

`O=C1C(C(O)(C(F)(F)F)C(F)(F)F)CCC1C(O)(C(F)(F)F)C(F)(F)F` (configuration not stated) registered a TGI of over 29.3 µM.

As to `COc1ccc(C2c3cc4c(cc3OC(NCCO)C2C)OCO4)cc1` (configuration not stated), the TGI stood at 43.5 µM.

On to `COc1nc2c(N3CCCC3)nc(N3CCNCC3)nc2nc1NCc1ccccc1`, for which the TGI is 4.65 µM.

For the compound `COC1C(O)C(O[C@H]2CC[C@@]3(C)C(CC[C@@H]4[C@@H]3CC[C@]3(C)[C@@H](C(C)OC5OC(CO)C(O)C(O)C5O)CC[C@]43O)C2)OC(C)C1OC1OC(CO)C(O)C(O)C1O` (some centres not stated), the TGI was over 100 µM.

In turn, `Nc1nc(Nc2ccccc2)sc1C(=O)c1ccco1` registered a TGI of 41.9 µM.

Turning to `Cc1cc(NS(=O)(=O)c2ccc(NC(NC(=O)C(C(F)(F)F)C(F)(F)F)(C(F)(F)F)C(F)(F)F)cc2)no1`, the TGI was over 100 µM.

Consider `O=S1SC(=S)C2C=CC=CC21` (configuration not stated), for which the TGI was over 100 µM.

`CC1(C)CC(C#Cc2ccccc2)CC(C)(C)N1O` returned a TGI of 29.4 µM.

The compound `Cc1ccc(NC(=O)/C(Cc2nc3ccc([N+](=O)[O-])cc3[nH]c2=O)=N\NC(=O)C[n+]2ccccc2)c(C)c1` gave a TGI of over 100 µM.

`CCN1C(=O)C(=C/C=C/c2ccc(N(CC)CC)cc2)C(=O)N(CC)C1=S` registered a TGI of over 100 µM.

`COc1ccc(NC(C)c2ccncc2)cc1` (configuration not stated) showed a TGI of over 100 µM.

The compound `O=C1C=CC(=O)C(CNc2ccc(C(=O)OCc3ccccc3)cc2)=C1` displayed a TGI of 31.8 µM.

For the compound `C/C(=C\CO)CC/C=C(\C)CNc1ccc([N+](=O)[O-])cc1`, the TGI is over 100 µM.

`CC(C)C1=C(O)C2=C(C(=O)C1=O)C1(C)CCCC(C)(C)C1C(O)C2OC=O` (configuration not stated) came in with a TGI of 23.2 µM.

`CC(C)[Si](OC/C(=C/COC(C)(C)C)[C@H]1CC=C(C(=O)c2ccccc2N2CN(C)C(=O)N(C)C2)C1)(C(C)C)C(C)C` returned a TGI of 18.7 µM.

`CCN(CCCl)c1cc(CN(C)C)cc(NC(=O)c2ccc(C(=O)Nc3cccc(CN(C)C)c3)cc2)c1` gave a TGI of 6.87 µM.

Compound `CCOC(=O)C1=CC(C)(C(=O)OCC)Nc2c(nc(N)[nH]c2=O)N1` (configuration not stated) yielded a TGI of over 10 µM.

The test system of another assay is NCI/ADR-RES ovarian. Kind of assay: NCI-60 cell line screen, 48 h.
`COc1cc2[nH]c(-c3ccccc3)cc(=O)c2c(OC)c1OC` had a TGI of over 100 µM.

`CCOP(=O)(OCC)OC1CC(n2cc(C)c(=O)n(C)c2=O)OC1CO[Si](C)(C)C(C)(C)C` (configuration not stated): the TGI is over 100 µM.

`Cc1cc(C)nc(NS(=O)(=O)c2ccc(NC(=O)c3cccc4c(NNc5ccc(S(=O)(=O)N=C(N)N)cc5)c5ccccc5nc34)cc2)n1` registered a TGI of over 50 µM.

Take `O=C(CC(C(=O)c1ccco1)c1ccco1)c1ccco1` (configuration not stated): the TGI is over 100 µM.

For the compound `O=C1CS(=O)(=O)C(c2cccc(Oc3ccccc3)c2)N1c1cc(Cl)ccc1Cl` (configuration not stated), the TGI turned out to be 77.8 µM.

Regarding `Nc1ccc(-c2nn3c(COc4ccc(Cl)cc4)nnc3s2)cc1`, the TGI was over 100 µM.

Regarding `COP(=O)(OC)C(Nc1ccc(Cc2ccc(NC(c3ccco3)P(=O)(OC)OC)cc2)cc1)c1ccco1` (configuration not stated), the TGI was over 100 µM.

Regarding `O=C(CC(=O)Nc1ccccc1)NNC(c1cc(N=Nc2ccc(Br)cc2)ccc1O)P(O)O` (configuration not stated), the TGI was over 10 µM.

`CCOC(=O)C1CCC(=O)N1C(=O)c1ccccc1Cl` (configuration not stated) had a TGI of over 100 µM.

`CCOC(=O)c1ccc(Nc2nc3ccc(C(F)(F)F)cc3nc2C(=O)OCC)cc1`: the TGI was over 100 µM.

`O=C1C(C(O)(C(F)(F)F)C(F)(F)F)CCC1C(O)(C(F)(F)F)C(F)(F)F` (configuration not stated) yielded a TGI of 32.6 µM.

Consider `COc1nc2c(N3CCCC3)nc(N3CCNCC3)nc2nc1NCc1ccccc1`, for which the TGI amounted to 17.1 µM.

`COC(=O)[C@H](Cc1ccccc1)NC(=O)N(CCC#N)CCN(C(=O)N[C@@H](Cc1ccccc1)C(=O)OC)c1ccccc1`: the TGI was over 100 µM.

In turn, `COC1C(O)C(O[C@H]2CC[C@@]3(C)C(CC[C@@H]4[C@@H]3CC[C@]3(C)[C@@H](C(C)OC5OC(CO)C(O)C(O)C5O)CC[C@]43O)C2)OC(C)C1OC1OC(CO)C(O)C(O)C1O` (some centres not stated) gave a TGI of over 100 µM.

In turn, `Nc1nc(Nc2ccccc2)sc1C(=O)c1ccco1` returned a TGI of 65.5 µM.

As to `Cc1cc(NS(=O)(=O)c2ccc(NC(NC(=O)C(C(F)(F)F)C(F)(F)F)(C(F)(F)F)C(F)(F)F)cc2)no1`, the TGI is over 100 µM.

`O=S1SC(=S)C2C=CC=CC21` (configuration not stated) gave a TGI of over 100 µM.

On to `CC1(C)CC(C#Cc2ccccc2)CC(C)(C)N1O`, for which the TGI was found to be 73.8 µM.

For `Cc1ccc(NC(=O)/C(Cc2nc3ccc([N+](=O)[O-])cc3[nH]c2=O)=N\NC(=O)C[n+]2ccccc2)c(C)c1`, the TGI is over 100 µM.

As to `CCN1C(=O)C(=C/C=C/c2ccc(N(CC)CC)cc2)C(=O)N(CC)C1=S`, the TGI was over 100 µM.

Compound `COc1ccc(NC(C)c2ccncc2)cc1` (configuration not stated) showed a TGI of over 100 µM.

The compound `O=C1C=CC(=O)C(CNc2ccc(C(=O)OCc3ccccc3)cc2)=C1` registered a TGI of 23.5 µM.

The compound `C/C(=C\CO)CC/C=C(\C)CNc1ccc([N+](=O)[O-])cc1` yielded a TGI of 64.5 µM.

Regarding `CC(C)[Si](OC/C(=C/COC(C)(C)C)[C@H]1CC=C(C(=O)c2ccccc2N2CN(C)C(=O)N(C)C2)C1)(C(C)C)C(C)C`, the TGI was found to be 32.7 µM.

On to `CCN(CCCl)c1cc(CN(C)C)cc(NC(=O)c2ccc(C(=O)Nc3cccc(CN(C)C)c3)cc2)c1`, for which the TGI was over 100 µM.

As to `CCOC(=O)C1=CC(C)(C(=O)OCC)Nc2c(nc(N)[nH]c2=O)N1` (configuration not stated), the TGI is over 10 µM.

The test system of the next assay is HS 578T breast. Kind of assay: NCI-60 cell line screen, 48 h.
The compound `COc1cc2[nH]c(-c3ccccc3)cc(=O)c2c(OC)c1OC` showed a TGI of over 100 µM.

For `CCOP(=O)(OCC)OC1CC(n2cc(C)c(=O)n(C)c2=O)OC1CO[Si](C)(C)C(C)(C)C` (configuration not stated), the TGI is over 100 µM.

On to `Cc1cc(C)nc(NS(=O)(=O)c2ccc(NC(=O)c3cccc4c(NNc5ccc(S(=O)(=O)N=C(N)N)cc5)c5ccccc5nc34)cc2)n1`, for which the TGI is over 50 µM.

Consider `O=C(CC(C(=O)c1ccco1)c1ccco1)c1ccco1` (configuration not stated), for which the TGI is over 100 µM.

Compound `O=C1CS(=O)(=O)C(c2cccc(Oc3ccccc3)c2)N1c1cc(Cl)ccc1Cl` (configuration not stated) yielded a TGI of over 100 µM.

With `Nc1ccc(-c2nn3c(COc4ccc(Cl)cc4)nnc3s2)cc1`, the TGI was over 100 µM.

For the compound `COP(=O)(OC)C(Nc1ccc(Cc2ccc(NC(c3ccco3)P(=O)(OC)OC)cc2)cc1)c1ccco1` (configuration not stated), the TGI was over 100 µM.

Turning to `O=C(CC(=O)Nc1ccccc1)NNC(c1cc(N=Nc2ccc(Br)cc2)ccc1O)P(O)O` (configuration not stated), the TGI was over 10 µM.

`CCOC(=O)C1CCC(=O)N1C(=O)c1ccccc1Cl` (configuration not stated) returned a TGI of over 100 µM.
